Active and inactive are the calls of the source. The calls are words filed in the database; no cut-off is given here.
Legend:
[1] = target: RAF proto-oncogene serine/threonine-protein kinase (Homo sapiens) (UniProt P04049); assay: Inhibition of c-RAF (unknown origin) at 0.2 uM incubated for 40 mins by radiometric kinase assay relative to control
[2] = tested on: JeKo-1; assay: Induction of apoptosis in human JeKo-1 cells assessed as early apoptotic cells at 750 nM incubated for 72 hrs by Annexin VFITC/PI staining based flow cytometry analysis (reference value: 3.10%); type: functional
[3] = target: 1-phosphatidylinositol 4,5-bisphosphate phosphodiesterase gamma-2 (Homo sapiens) (UniProt P16885); assay: Inhibition of PLCgamma2 phosphorylation in human JeKo-1 cells incubated for 72 hrs by Western blot analysis; type: cell-based; conditions: dose 30-750 nM
[4] = target: T1, Tyrosine-protein kinase BTK (Homo sapiens, UniProt Q06187); assay: Inhibition of BTK phosphorylation in human JeKo-1 cells incubated for 72 hrs by Western blot analysis; type: cell-based; conditions: dose 30-750 nM
[5] = target: Dual specificity mitogen-activated protein kinase kinase 1 (Homo sapiens) (UniProt Q02750); assay: Inhibition of MEK1 (unknown origin) at 0.2 uM incubated for 40 mins by radiometric kinase assay relative to control
[6] = tested on: MV4-11; assay: Potency index, ratio of spebrutinib IC50 to test compound IC50 for antiproliferative activity against human MV4-11 cells; type: functional
[7] = tested on: MOLT-4; assay: cells; conditions: Homo sapiens, MOLT-4, 72 h
Description: Antiproliferative activity against human MOLT-4 cells assessed as inhibition of cell growth incubated for 72 hrs by CCK8 assay

[8] = target: Mitogen-activated protein kinase 8 (Homo sapiens) (UniProt P45983); assay: Inhibition of JNK1alpha1 (unknown origin) at 0.2 uM incubated for 40 mins by radiometric kinase assay relative to control
[9] = Acute toxicity in ICR mouse assessed as animal survival at 375 mg/kg, ip measured for 2 weeks; type: organism-based; conditions: in vivo
[10] = target: Histone deacetylase (Homo sapiens) (UniProt Q13547+O15379+Q9UBN7+Q92769+Q9UQL6+Q8WUI4+Q9BY41+Q96DB2+P56524+Q9UKV0+Q969S8); assay: Inhibition of HDAC (unknown origin) at 0.2 uM incubated for 40 mins by radiometric kinase assay relative to control; type: protein assay
[11] = tested on: JeKo-1; assay: Antitumor activity against human JeKo-1 cells xenografted NOD/SCID mouse assessed as tumor growth inhibition at 25 mg/kg, ip measured for 16 days; type: functional; conditions: JeKo-1, 384 h, time 16 day, read-out: TGI
[12] = target: Serine/threonine-protein kinase PLK1 (Homo sapiens) (UniProt P53350); assay: Inhibition of PLK1 (unknown origin) at 0.2 uM incubated for 40 mins by radiometric kinase assay relative to control
[13] = tested on: JeKo-1; assay: Induction of apoptosis in human JeKo-1 cells assessed as upregulation of cleaved caspase-3 protein expression incubated for 72 hrs by Western blot analysis; type: functional, cell-based; conditions: dose 30-750 nM
[14] = tested on: JeKo-1; assay: Induction of apoptosis in human JeKo-1 cells assessed as upregulation of p53 protein expression incubated for 72 hrs by Western blot analysis; type: functional, cell-based; conditions: dose 30-750 nM
[15] = Toxicity in NOD/SCID mouse xenografted with human MV4-11 cells assessed as effect on body weight loss at 10 to 20 mg/kg, ip administered once daily for 21 days; type: organism-based; conditions: in vivo, 504 h, dose 10-20 mg/kg, time 21 day
[16] = tested on: K562; assay: Potency index, ratio of sorafenib IC50 to test compound IC50 for antiproliferative activity against human K562 cells; type: functional
[17] = target: Serine/threonine-protein kinase pim-1 (Homo sapiens) (UniProt P11309); assay: Inhibition of PIM-1 (unknown origin) at 0.2 uM incubated for 40 mins by radiometric kinase assay relative to control
[18] = target: Mast/stem cell growth factor receptor Kit (Homo sapiens) (UniProt P10721); assay: Inhibition of cKit (unknown origin) at 0.2 uM incubated for 40 mins by radiometric kinase assay relative to control
[19] = target: T1, Tyrosine-protein kinase BTK; assay: Inhibition of BTK (unknown origin) incubated for 40 mins by radiometric kinase assay
[20] = tested on: Receptor-type tyrosine-protein kinase FLT3 (Homo sapiens), P36888 [D835Y]; assay: Inhibition of FLT3 D835Y mutant (unknown origin) at 0.2 uM incubated for 40 mins by radiometric kinase assay relative to control
[21] = target: Mitogen-activated protein kinase 13 (Homo sapiens) (UniProt O15264); assay: Inhibition of SAPK4 (unknown origin) at 0.2 uM incubated for 40 mins by radiometric kinase assay relative to control
[22] = tested on: MOLT-4; assay: Potency index, ratio of sorafenib IC50 to test compound IC50 for antiproliferative activity against human MOLT-4 cells; type: functional
[23] = tested on: MV4-11; assay: Antitumor activity against human MV4-11 cells xenografted NOD/SCID mouse assessed as increase in tumor necrotic cells at 10 mg/kg, ip administered once daily for 21 days by H and E staining analysis; type: functional, organism-based; conditions: time 21.0 day
[24] = Toxicity in NOD/SCID mouse xenografted with human JeKo-1 cells assessed as drinking abnormalities at 25 to 50 mg/kg, ip measured for 16 days; type: organism-based; conditions: in vivo, 384 h, dose 25-50 mg/kg, time 16 day
[25] = Acute toxicity in ICR mouse assessed as animal survival at 585.9 mg/kg, ip measured for 2 weeks; type: organism-based; conditions: in vivo
[26] = Acute toxicity in ICR mouse assessed as animal survival at 240 mg/kg, ip measured for 2 weeks; type: organism-based; conditions: in vivo
[27] = tested on: MV4-11; assay: Antitumor activity against human MV4-11 cells xenografted NOD/SCID mouse assessed as increase in tumor necrotic cells at 20 mg/kg, ip administered once daily for 21 days by H and E staining analysis; type: functional, organism-based; conditions: time 21.0 day
[28] = Acute toxicity in ICR mouse assessed as animal survival at 300 mg/kg, ip measured for 2 weeks; type: organism-based; conditions: in vivo
[29] = Acute toxicity in ICR mouse assessed as animal survival at 468.8 mg/kg, ip measured for 2 weeks; type: organism-based; conditions: in vivo
[30] = target: Cytoplasmic tyrosine-protein kinase BMX (Homo sapiens) (UniProt P51813); assay: Inhibition of BMX (unknown origin) at 0.2 uM incubated for 40 mins by radiometric kinase assay relative to control
[31] = tested on: MOLT-4; assay: Potency index, ratio of spebrutinib IC50 to test compound IC50 for antiproliferative activity against human MOLT-4 cells; type: functional
[32] = tested on: JeKo-1; assay: Induction of apoptosis in human JeKo-1 cells assessed as late apoptotic cells at 150 nM incubated for 72 hrs by Annexin VFITC/PI staining based flow cytometry analysis (reference value: 1.42%); type: functional
[33] = tested on: JeKo-1; assay: cells; conditions: Homo sapiens, JeKo-1, 72 h
Description: Antiproliferative activity against human JeKo-1 cells assessed as inhibition of cell growth incubated for 72 hrs by CCK8 assay

[34] = tested on: JeKo-1; assay: Antitumor activity against human JeKo-1 cells xenografted NOD/SCID mouse assessed as reduction in tumor weight at 25 mg/kg, ip measured for 16 days; type: functional; conditions: time 16 day
[35] = Metabolic stability in human liver microsome assessed as intrinsic clearance preincubated with compound for 5 mins followed by NADPH addition and measured upto 60 mins by LC-MS/MS analysis; type: ADME; conditions: liver microsomes, time < 65 min, read-out: CLH
[36] = target: MAP kinase-activated protein kinase 2 (Homo sapiens) (UniProt P49137); assay: Inhibition of MAPKAP-K2 (unknown origin) at 0.2 uM incubated for 40 mins by radiometric kinase assay relative to control
Chain of MAP kinase-activated protein kinase 2 (Homo sapiens) (P49137 whole entry, looked up): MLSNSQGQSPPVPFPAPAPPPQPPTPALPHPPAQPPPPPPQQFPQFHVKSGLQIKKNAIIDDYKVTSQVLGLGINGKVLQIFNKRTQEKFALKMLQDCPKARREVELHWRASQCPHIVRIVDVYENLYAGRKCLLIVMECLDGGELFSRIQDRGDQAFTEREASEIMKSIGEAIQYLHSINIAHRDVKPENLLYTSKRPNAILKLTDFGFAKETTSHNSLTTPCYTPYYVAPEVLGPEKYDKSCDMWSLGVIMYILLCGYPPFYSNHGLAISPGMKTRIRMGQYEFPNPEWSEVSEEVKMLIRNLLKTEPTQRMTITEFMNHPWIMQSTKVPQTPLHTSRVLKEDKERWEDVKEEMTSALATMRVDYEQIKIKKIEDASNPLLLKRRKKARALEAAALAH

T1 sequence (Q06187 whole entry): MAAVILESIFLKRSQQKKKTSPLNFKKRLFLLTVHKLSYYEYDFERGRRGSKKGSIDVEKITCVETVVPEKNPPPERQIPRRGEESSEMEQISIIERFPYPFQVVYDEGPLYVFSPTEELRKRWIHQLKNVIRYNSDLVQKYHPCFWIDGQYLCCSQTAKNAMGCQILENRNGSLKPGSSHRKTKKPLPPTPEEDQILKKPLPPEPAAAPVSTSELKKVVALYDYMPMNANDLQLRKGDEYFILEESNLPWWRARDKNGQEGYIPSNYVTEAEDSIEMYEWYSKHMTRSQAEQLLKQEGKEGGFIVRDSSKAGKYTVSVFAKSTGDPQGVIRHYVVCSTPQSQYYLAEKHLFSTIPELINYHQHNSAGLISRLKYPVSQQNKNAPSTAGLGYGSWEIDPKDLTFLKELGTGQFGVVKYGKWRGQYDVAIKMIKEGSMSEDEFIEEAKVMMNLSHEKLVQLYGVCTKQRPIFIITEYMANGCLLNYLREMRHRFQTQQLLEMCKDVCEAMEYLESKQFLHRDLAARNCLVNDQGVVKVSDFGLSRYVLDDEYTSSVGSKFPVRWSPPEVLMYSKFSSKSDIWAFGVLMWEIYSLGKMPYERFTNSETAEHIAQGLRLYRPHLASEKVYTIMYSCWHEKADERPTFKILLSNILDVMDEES
Chain of Mitogen-activated protein kinase 13 (Homo sapiens) (O15264 whole entry): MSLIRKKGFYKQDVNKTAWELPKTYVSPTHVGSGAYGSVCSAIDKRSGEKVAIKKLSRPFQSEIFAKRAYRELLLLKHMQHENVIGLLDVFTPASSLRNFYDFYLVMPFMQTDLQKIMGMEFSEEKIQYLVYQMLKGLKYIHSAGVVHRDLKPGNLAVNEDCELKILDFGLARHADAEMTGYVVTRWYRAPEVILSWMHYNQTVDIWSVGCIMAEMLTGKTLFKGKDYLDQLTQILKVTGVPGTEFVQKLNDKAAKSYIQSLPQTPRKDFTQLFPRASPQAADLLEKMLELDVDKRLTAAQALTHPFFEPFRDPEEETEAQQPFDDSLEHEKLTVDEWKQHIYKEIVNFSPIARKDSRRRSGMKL
Chain of Mitogen-activated protein kinase 8 (Homo sapiens) (P45983 whole entry): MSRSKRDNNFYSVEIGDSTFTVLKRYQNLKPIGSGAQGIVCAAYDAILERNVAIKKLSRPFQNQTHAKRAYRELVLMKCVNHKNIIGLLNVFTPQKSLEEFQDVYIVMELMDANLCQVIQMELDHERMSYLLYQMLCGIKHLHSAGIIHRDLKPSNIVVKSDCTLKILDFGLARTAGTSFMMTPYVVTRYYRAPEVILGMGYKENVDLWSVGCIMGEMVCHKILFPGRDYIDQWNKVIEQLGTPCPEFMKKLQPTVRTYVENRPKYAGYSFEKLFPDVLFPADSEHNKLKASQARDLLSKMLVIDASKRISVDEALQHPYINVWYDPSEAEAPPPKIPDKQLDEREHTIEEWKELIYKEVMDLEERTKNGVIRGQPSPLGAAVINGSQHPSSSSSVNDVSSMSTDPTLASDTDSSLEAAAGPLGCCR
Chain of Mast/stem cell growth factor receptor Kit (Homo sapiens) (P10721 whole entry): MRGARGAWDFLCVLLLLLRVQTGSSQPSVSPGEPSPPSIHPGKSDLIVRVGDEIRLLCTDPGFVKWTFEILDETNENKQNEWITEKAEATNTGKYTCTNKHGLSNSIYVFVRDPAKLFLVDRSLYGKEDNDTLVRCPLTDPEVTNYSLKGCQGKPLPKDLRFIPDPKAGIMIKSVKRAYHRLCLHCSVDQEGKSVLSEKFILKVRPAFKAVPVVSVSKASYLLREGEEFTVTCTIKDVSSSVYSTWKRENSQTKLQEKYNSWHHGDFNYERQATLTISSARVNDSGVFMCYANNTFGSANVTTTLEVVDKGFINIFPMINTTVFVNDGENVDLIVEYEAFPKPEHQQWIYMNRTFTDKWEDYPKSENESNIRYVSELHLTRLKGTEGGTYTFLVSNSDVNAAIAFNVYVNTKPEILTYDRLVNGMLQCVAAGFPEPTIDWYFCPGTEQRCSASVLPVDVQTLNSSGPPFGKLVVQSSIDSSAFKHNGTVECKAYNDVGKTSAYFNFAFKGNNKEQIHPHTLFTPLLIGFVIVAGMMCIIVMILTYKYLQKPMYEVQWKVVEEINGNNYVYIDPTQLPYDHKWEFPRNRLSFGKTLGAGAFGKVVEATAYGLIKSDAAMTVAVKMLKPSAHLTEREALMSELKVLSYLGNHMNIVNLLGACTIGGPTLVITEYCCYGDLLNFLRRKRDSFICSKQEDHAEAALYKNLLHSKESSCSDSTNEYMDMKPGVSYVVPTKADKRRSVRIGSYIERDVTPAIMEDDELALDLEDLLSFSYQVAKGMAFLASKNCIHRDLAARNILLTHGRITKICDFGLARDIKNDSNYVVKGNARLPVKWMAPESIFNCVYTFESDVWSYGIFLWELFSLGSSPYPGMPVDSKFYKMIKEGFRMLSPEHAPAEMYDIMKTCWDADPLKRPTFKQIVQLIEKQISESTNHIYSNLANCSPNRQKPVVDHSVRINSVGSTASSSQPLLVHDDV
Chain of Cytoplasmic tyrosine-protein kinase BMX (Homo sapiens) (P51813 whole entry): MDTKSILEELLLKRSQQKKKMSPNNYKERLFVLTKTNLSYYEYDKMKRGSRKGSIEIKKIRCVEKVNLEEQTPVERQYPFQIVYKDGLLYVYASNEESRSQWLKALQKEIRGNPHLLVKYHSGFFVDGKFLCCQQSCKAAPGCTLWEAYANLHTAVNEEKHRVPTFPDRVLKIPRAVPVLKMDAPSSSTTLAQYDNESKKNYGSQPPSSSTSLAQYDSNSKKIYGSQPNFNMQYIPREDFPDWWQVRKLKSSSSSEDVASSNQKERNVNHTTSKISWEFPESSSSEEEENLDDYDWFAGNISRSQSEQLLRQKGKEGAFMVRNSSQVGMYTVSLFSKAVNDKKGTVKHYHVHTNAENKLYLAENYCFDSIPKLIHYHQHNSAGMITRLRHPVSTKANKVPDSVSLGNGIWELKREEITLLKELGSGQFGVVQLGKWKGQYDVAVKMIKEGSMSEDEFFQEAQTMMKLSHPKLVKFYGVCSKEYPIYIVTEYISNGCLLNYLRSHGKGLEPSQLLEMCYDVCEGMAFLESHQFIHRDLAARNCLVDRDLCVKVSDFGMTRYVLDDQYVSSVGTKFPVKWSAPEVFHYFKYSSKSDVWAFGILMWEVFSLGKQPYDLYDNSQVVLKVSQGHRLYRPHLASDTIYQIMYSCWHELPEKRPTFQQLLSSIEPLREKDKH
Chain of Dual specificity mitogen-activated protein kinase kinase 1 (Homo sapiens) (Q02750 whole entry): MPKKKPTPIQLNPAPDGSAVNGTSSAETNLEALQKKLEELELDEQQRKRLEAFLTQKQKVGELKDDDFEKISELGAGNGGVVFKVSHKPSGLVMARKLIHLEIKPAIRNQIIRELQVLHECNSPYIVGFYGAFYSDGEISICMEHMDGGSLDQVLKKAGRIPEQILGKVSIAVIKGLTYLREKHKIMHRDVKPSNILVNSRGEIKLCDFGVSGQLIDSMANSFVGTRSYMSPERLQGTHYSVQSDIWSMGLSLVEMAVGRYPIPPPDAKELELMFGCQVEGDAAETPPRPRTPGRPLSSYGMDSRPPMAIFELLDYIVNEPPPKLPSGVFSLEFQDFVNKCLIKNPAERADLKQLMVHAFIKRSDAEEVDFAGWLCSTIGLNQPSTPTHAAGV
Chain of Serine/threonine-protein kinase pim-1 (Homo sapiens) (P11309 whole entry, looked up): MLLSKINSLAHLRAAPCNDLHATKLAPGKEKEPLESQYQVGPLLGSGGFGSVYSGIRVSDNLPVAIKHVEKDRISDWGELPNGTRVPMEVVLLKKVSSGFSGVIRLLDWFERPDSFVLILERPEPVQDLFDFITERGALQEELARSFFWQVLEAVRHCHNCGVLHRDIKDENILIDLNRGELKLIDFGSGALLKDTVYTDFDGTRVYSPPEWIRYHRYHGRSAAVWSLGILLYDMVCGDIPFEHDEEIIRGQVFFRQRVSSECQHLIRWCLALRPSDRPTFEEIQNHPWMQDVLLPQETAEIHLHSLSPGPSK
Chain of Serine/threonine-protein kinase PLK1 (Homo sapiens) (P53350 whole entry): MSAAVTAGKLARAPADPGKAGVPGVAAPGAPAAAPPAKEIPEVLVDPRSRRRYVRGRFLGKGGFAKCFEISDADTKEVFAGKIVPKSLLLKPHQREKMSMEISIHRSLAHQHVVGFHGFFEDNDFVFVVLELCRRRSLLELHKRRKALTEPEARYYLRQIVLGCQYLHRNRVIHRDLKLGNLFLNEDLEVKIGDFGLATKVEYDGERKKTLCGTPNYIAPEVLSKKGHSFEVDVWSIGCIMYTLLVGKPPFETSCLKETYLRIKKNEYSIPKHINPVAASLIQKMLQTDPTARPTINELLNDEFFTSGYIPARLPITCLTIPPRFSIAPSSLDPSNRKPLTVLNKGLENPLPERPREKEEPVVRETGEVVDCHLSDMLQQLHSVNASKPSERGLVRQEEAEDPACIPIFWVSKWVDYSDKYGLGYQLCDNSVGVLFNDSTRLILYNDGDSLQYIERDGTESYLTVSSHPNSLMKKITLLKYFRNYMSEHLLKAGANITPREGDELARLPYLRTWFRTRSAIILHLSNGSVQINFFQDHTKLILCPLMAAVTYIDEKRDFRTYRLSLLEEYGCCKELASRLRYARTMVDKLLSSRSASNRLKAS

Compound: CN1CCN(c2ccc(Nc3ncc(F)c(Nc4ccccc4C(=O)NN)n3)cc2)CC1
- inhibition [1]: -10%
- Activity [2]: 37.89%
- inhibition [3]: Dose-Dependent Effect
- inhibition [4]: Dose-Dependent Effect
- inhibition [5]: -3%
- Ratio IC50 [6]: 8
- IC50 [7]: 11 nM
- inhibition [8]: 27%
- survival at 336 h [9]: 40%
- inhibition [10]: 5%
- inhibition in vivo at 25 mg/kg [11]: 67%
- inhibition [12]: 7%
- Activity [13]: Dose-Dependent Effect
- Activity [14]: Dose-Dependent Effect
- Activity [15]: Non-Toxic
- Ratio IC50 [16]: 1.3
- inhibition [17]: 28%
- inhibition [18]: 10%
- IC50 [19]: 47 nM
- inhibition [20]: 101%
- inhibition [21]: 3%
- Ratio IC50 [22]: 1.3
- Activity [23]: Active
- Activity [24]: Non-Toxic
- survival at 336 h [25]: 0%
- survival at 336 h [26]: 100%
- Activity [27]: Active
- survival at 336 h [28]: 60%
- survival at 336 h [29]: 10%
- inhibition [30]: 79%
- Ratio IC50 [31]: 8
- Activity [32]: 1.65%
- IC50 [33]: 17 nM
- Activity [34]: 0.31 g
- CLint scaled [35]: 30.1 mL/min/kg
- inhibition [36]: 6%

Reference: ChEMBL document CHEMBL5385861, “Development of novel hydrazidoarylaminopyrimidine-based BTK/FLT3 dual inhibitors with potent in vivo anti-hematological malignancies effects” (Eur J Med Chem, 2023)
